The values below come from US10005846B2, “Anti-transglutaminase 2 antibodies” (MEDICAL RESEARCH COUNCIL TECHNOLOGY, priority 2012, dated 2018).

For assay [1], the target named is T1, extracellular TG2 in human HK-2 cells (Homo sapiens, UniProt P21980).
T1 construct: endogenous in cells; host or cells: HK-2 (kidney proximal tubular epithelium)
T1 sequence (P21980 1-687): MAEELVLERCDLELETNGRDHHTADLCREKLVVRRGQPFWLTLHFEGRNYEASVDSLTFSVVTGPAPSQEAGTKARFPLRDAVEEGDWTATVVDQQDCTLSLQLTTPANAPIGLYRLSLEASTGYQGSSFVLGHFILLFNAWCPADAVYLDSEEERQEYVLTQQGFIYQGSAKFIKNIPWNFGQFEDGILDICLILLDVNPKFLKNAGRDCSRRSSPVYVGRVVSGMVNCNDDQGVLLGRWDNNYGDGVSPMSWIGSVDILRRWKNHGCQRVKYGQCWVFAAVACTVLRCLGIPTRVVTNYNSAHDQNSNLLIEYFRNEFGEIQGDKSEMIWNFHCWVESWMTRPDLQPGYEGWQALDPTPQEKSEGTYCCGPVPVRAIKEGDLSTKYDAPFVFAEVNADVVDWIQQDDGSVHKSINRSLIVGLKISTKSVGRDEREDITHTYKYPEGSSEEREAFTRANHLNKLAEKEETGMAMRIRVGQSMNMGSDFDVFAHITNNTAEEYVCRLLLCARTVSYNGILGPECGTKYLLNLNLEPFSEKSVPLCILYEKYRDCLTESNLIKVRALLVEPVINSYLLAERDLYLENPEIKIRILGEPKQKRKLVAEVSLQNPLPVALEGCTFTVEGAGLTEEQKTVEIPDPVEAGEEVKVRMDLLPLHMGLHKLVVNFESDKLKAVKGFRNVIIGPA
The experiment in a line: Extracellular TG activity in HK-2 cells, biotin cadaverine incorporation into fibronectin (Example 1). The following applies: 400 μM of the site-specific pan TG inhibitor 1,3-Dimethyl-2-[(2-oxo-propyl)thio]imidazolium chloride. The assay is classed as cell-based. Here is the method:
HK2 cells were plated onto fibronectin and incubated for 2 hours in the presence of 0.1M biotin cadaverine with either 4 ng/μl of human anti-TG2 antibody (AB1) (part A), 4 ng/μl of human anti-TG2 antibody (DC1) (part B) or 400 μM of the site-specific pan TG inhibitor 1,3-Dimethyl-2-[(2-oxo-propyl)thio]imidazolium chloride. […] Changes in optical density were measured at 450 nm in a 96 well plate reader. Data represents mean OD at 450 nm corrected to 1 mg of cell protein. n=6 wells per experimental group.
Extracellular TG activity was measured by modified cell ELISA. HK-2 epithelial cells were harvested using 0.1M EDTA or 0.25% trypsin/EDTA and plated at a density of 8×10^4 cells/well in serum free medium onto a 96 well plate that had been coated overnight with 100 μl/well of fibronectin (5 μg/ml in 50 mM Tris-HCl pH 7.4) (Sigma, Poole UK). Cells were allowed to attach for 2.5 h at 37° C. in the presence of the 0.1 mM biotin cadaverine [N-(5 amino pentyl biotinamide) trifluoroacetic acid] (Molecular Probes, Eugene Oreg., USA). Plates were washed twice with 3 mM EDTA/PBS and cells removed with 0.1% (w/v) deoxycholate in 5 mM EDTA/PBS. The supernatant was collected and used for protein determination. […] The reaction was stopped with 50 μl 2.5 M H2SO4 and the absorbance read at 450 nm.

A further assay has as its system WI-38 cells. Nature of the assay: Scratch wound assay in WI-38 cells. The assay is classed as cell-based, human. The following applies: serum free media; Cytochalasin D 0.1 μM, R281 100 μM, Z DON 10 μM and 100 μM, Cub7402 5 μg/ml. Here is the method: WI-38 cells (normal human lung fibroblasts ATCC cat#CCL-75) were plated in a 96 well Image Lock plate (Essen cat#4379) at 2×10^4/well in αMEM media (Life Technologies cat#32561) with 10% FBS and grown O/N to >97% confluence. Cells were washed 2× with αMEM media without serum and a scratch wound was generated using an Essen Wound Maker and the manufacturers protocol. The media was removed and replaced with 95 μl/well serum free media. Controls and test antibodies were added to the wells. The plate was placed in an Essen Incucyte and the closure of the wound was analysed using the scratch wound protocol.
Cytochalasin D was used as an assay control at 0.1 μM. R281, a small molecule non-specific transglutaminase inhibitor, was tested at 100 μM. Z DON, a peptide non reversible transglutaminase inhibitor was tested at 10 μM and 100 μM. The commercially available TG2 antibody Cub7402 (ABcam cat#ab2386) was tested at 5 μg/ml. Antibodies of the invention were tested on at least three occasions at various concentrations as indicated. In all experiments controls were Cytochalasin D at 0.1 uM and ZDON at two concentrations to show a dose dependant effect.

SMILES strings stand for the structures.

Regarding `CC(=O)CSc1n(C)cc[n+]1C.[Cl-]` [1,3-Dimethyl-2-[(2-oxo-propyl)thio]imidazolium chloride, reference compound], the “inhibition of extracellular TG activity relative to AB1 and DC1” value in assay [1] is given as “comparable”.

In the case of `C=C1[C@@H](C)[C@H]2[C@H](Cc3ccccc3)NC(=O)[C@]23[C@H](OC(C)=O)/C=C/[C@@](C)(O)C(=O)[C@@H](C)C/C=C/[C@H]3[C@@H]1O` [Cytochalasin D, reference compound], the “effect on wound closure” value in the assay with WI-38 cells was “inhibited wound closure”.
